Test systems include HOP-62 NSCLC; IGROV1 ovarian; NCI-H460 lung; OVCAR-5 ovarian; SF-268 CNS; SF-539 CNS; SK-MEL-28 melanoma; SNB-19 CNS; TK-10 renal; UACC-257 melanoma.
Assay in all cases: DTP human tumour cell line panel, 48 h

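Grown in 96-well plates, cells were treated for 48 hours with each compound at five concentrations. Insufficient inhibition: endpoint recorded as highest concentration tested. GI50 = concentration required for 50% inhibition of growth. TGI denotes the concentration required for complete inhibition of growth.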 Bounds are passed on as bounds.

As for `Nc1ccc(CC[C@H]2CCC/C=C/[C@@H]3C[C@H](O)C[C@H]3[C@H](O)/C=C/C(=O)O2)cc1`, the 50% growth inhibitory concentration (GI50) is 0.0463 µM in the experiment with HOP-62 NSCLC; 0.0367 µM in the experiment on IGROV1 ovarian; 0.043 µM in the experiment with NCI-H460 lung; 0.0481 µM in the experiment on OVCAR-5 ovarian; 0.0351 µM in the experiment on SF-268 CNS; 0.0562 µM in the experiment on SF-539 CNS. The concentration for 50% growth inhibition (GI50) with SK-MEL-28 melanoma was 0.0244 µM; in the experiment on SNB-19 CNS it was 0.0504 µM; with TK-10 renal, 0.0382 µM; with UACC-257 melanoma it was 0.0565 µM. For the same compound, the concentration for total growth inhibition (TGI) is 0.175 µM in the experiment on IGROV1 ovarian; over 100 µM in the experiment on NCI-H460 lung; over 78.1 µM in the experiment with OVCAR-5 ovarian; over 100 µM with SF-268 CNS; over 100 µM with SF-539 CNS; 1.43 µM in the experiment with SK-MEL-28 melanoma. In addition, the concentration for total growth inhibition (TGI) is over 100 µM in the experiment on SNB-19 CNS, 0.831 µM in the experiment on TK-10 renal and 37.1 µM in the experiment on UACC-257 melanoma.
On to `CCSC[C@@H]1C[C@](O)(c2ccccc2)[C@@H](c2ccccc2)O1`, for which the GI50 is over 100 µM in the experiment with HOP-62 NSCLC; 59.5 µM in the experiment on IGROV1 ovarian; over 76.1 µM with NCI-H460 lung; over 100 µM in the experiment on OVCAR-5 ovarian; over 78.6 µM with SF-268 CNS; over 100 µM with SF-539 CNS. Moreover, the GI50 was over 100 µM with SK-MEL-28 melanoma, over 100 µM in the experiment on SNB-19 CNS, over 91.7 µM with TK-10 renal and over 82.3 µM in the experiment with UACC-257 melanoma. For the same compound, the total growth inhibition concentration (TGI) with HOP-62 NSCLC, with IGROV1 ovarian, with NCI-H460 lung, in the experiment on OVCAR-5 ovarian, with SF-268 CNS and in the experiment with SF-539 CNS was over 100 µM throughout. The concentration for total growth inhibition (TGI) in the experiment with SK-MEL-28 melanoma, with SNB-19 CNS, in the experiment on TK-10 renal and in the experiment with UACC-257 melanoma was over 100 µM throughout.
Consider `S=c1ssnc1-c1cc2ccccc2o1`, for which the GI50 is 17.3 µM in the experiment on HOP-62 NSCLC; 4.09 µM in the experiment on IGROV1 ovarian; 11 µM with NCI-H460 lung; 20.8 µM with OVCAR-5 ovarian; 13.9 µM in the experiment on SF-268 CNS; 15.3 µM with SF-539 CNS. The GI50 is 15.1 µM with SK-MEL-28 melanoma, 16.7 µM with SNB-19 CNS, 22.1 µM in the experiment on TK-10 renal and 6.09 µM with UACC-257 melanoma. Moreover, the total growth inhibition concentration (TGI) with HOP-62 NSCLC stood at 37.6 µM; in the experiment with IGROV1 ovarian, 29 µM; in the experiment on NCI-H460 lung, 29.5 µM; with OVCAR-5 ovarian it was 39.2 µM; in the experiment with SF-268 CNS it was 35 µM; in the experiment on SF-539 CNS, 29.8 µM. Also, the total growth inhibition concentration (TGI) in the experiment with SK-MEL-28 melanoma was 30 µM; with SNB-19 CNS, 36.8 µM; with TK-10 renal, 45.9 µM; with UACC-257 melanoma, 20.5 µM.
`O=C(O)CNc1ccc2c(c1)Cc1cc(Br)ccc1-2`: the TGI with HOP-62 NSCLC was over 67.8 µM; in the experiment on IGROV1 ovarian, over 100 µM; with NCI-H460 lung, over 60.3 µM; in the experiment with OVCAR-5 ovarian it was over 73.1 µM; in the experiment on SF-268 CNS, over 100 µM; in the experiment on SF-539 CNS, 58.4 µM. In addition, the TGI in the experiment with SK-MEL-28 melanoma is over 100 µM; in the experiment on SNB-19 CNS, over 84.6 µM; with TK-10 renal, over 84.6 µM; with UACC-257 melanoma it was 72.7 µM.
Regarding `N[C@@H]1CCCN(c2c(Br)cnc3[nH]cc(NC(=O)C4CC4)c23)C1`, the GI50 in the experiment with HOP-62 NSCLC was 0.646 µM; with IGROV1 ovarian, 0.409 µM; with NCI-H460 lung, 0.785 µM; in the experiment on OVCAR-5 ovarian, 0.478 µM; in the experiment with SF-268 CNS it was 3.92 µM; in the experiment on SF-539 CNS it was 0.0809 µM. Besides, the GI50 was 77.2 µM in the experiment on SK-MEL-28 melanoma, 0.692 µM in the experiment on SNB-19 CNS and 0.606 µM in the experiment on TK-10 renal. The total growth inhibition concentration (TGI) with HOP-62 NSCLC is over 100 µM; in the experiment on IGROV1 ovarian, over 100 µM; in the experiment on NCI-H460 lung it was over 100 µM; in the experiment with OVCAR-5 ovarian, over 100 µM; in the experiment with SF-268 CNS, over 100 µM; with SF-539 CNS, 0.503 µM. In addition, the TGI in the experiment with SK-MEL-28 melanoma is over 100 µM; with SNB-19 CNS, over 100 µM; with TK-10 renal, over 68.6 µM; in the experiment on UACC-257 melanoma it was over 100 µM.
`COC(=O)c1c(C)nc(C)c2c1C(=O)C(Br)=C(NCc1ccccc1)C2=O`: the GI50 with HOP-62 NSCLC was 3.12 µM; in the experiment with IGROV1 ovarian, 2.05 µM; in the experiment with NCI-H460 lung, 2.94 µM; in the experiment with OVCAR-5 ovarian, 3.11 µM; with SF-268 CNS, 3.46 µM; with SF-539 CNS it was 2.85 µM. Besides, the GI50 in the experiment with SK-MEL-28 melanoma was 5.79 µM; with SNB-19 CNS, 3.04 µM; with TK-10 renal, 10.1 µM; with UACC-257 melanoma, 1.62 µM. Moreover, the TGI in the experiment on HOP-62 NSCLC was determined as 10.8 µM; in the experiment on IGROV1 ovarian, 5.45 µM; with NCI-H460 lung it was 11.5 µM; with OVCAR-5 ovarian, 7.9 µM; in the experiment with SF-268 CNS, 13.5 µM; in the experiment with SF-539 CNS, 8.01 µM. Further, the TGI was determined as 17.5 µM in the experiment on SK-MEL-28 melanoma, 9.23 µM in the experiment on SNB-19 CNS, 21.9 µM with TK-10 renal and 3.19 µM in the experiment with UACC-257 melanoma.
For `O=c1ccc(N=Nc2ccccc2)ccc1O`, the concentration for total growth inhibition (TGI) in the experiment on HOP-62 NSCLC is 24.4 µM; in the experiment on IGROV1 ovarian, 34.6 µM; with NCI-H460 lung, 97.8 µM; in the experiment with OVCAR-5 ovarian, 47.4 µM; in the experiment on SF-268 CNS, over 100 µM; with SF-539 CNS it was 37.2 µM. Moreover, the total growth inhibition concentration (TGI) is 32.9 µM with SK-MEL-28 melanoma, over 100 µM with SNB-19 CNS, 60.2 µM with TK-10 renal and 51.7 µM in the experiment with UACC-257 melanoma.
For `O=C(/C=C/c1ccc(O)c(O)c1)N1CCN(c2ccc(Cl)cc2)CC1`, the GI50 in the experiment with HOP-62 NSCLC is 7.77 µM; with IGROV1 ovarian it was 4.5 µM; with NCI-H460 lung it was 4.79 µM; in the experiment with OVCAR-5 ovarian, 13.3 µM; in the experiment with SF-268 CNS it was 4.92 µM; with SF-539 CNS it was 4.4 µM. The GI50 with SK-MEL-28 melanoma was 11.5 µM; in the experiment with SNB-19 CNS, 5.17 µM; in the experiment on TK-10 renal it was 3.59 µM; with UACC-257 melanoma, 7.72 µM. In addition, the TGI in the experiment with HOP-62 NSCLC is 35.1 µM; in the experiment with IGROV1 ovarian, 80.5 µM; with NCI-H460 lung it was 21.5 µM; in the experiment with OVCAR-5 ovarian it was 85.7 µM; with SF-268 CNS, 42.6 µM; in the experiment on SF-539 CNS it was 21.1 µM. The TGI with SK-MEL-28 melanoma was found to be 58.5 µM; in the experiment with SNB-19 CNS, 98.1 µM; with TK-10 renal it was 26.2 µM; in the experiment on UACC-257 melanoma, 50 µM.

(Values after PubChem BioAssay (NCI).)
